Here are results for 58 compounds from patent publication US12583858B2 (Genentech, Inc., priority 2015, dated 2026).

Where only a bound is given, the exact number is not on record here.

By EC50 is commonly meant the concentration needed to bring the measured effect to its halfway point.

The target of this assay is T1, TDO2 (Homo sapiens, UniProt P48775).
T1 construct: decreased levels of NFK in SW48 cells (high TDO expressing cells)
T1 sequence (P48775 whole entry): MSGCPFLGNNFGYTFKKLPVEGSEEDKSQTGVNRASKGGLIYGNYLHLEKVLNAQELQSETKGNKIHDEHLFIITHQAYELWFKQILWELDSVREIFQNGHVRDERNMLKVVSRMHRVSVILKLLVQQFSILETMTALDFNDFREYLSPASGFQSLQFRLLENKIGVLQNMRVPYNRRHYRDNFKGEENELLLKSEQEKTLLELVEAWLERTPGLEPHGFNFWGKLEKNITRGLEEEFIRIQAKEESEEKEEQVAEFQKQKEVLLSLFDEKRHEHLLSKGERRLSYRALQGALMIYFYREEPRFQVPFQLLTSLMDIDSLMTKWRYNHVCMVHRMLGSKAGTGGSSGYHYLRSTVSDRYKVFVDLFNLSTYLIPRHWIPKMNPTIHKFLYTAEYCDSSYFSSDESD
Description: TDO2 cell assay (NFK GreenScreen, SW48 cells). The format is cell-based. The conditions noted are these: SW48 cells (high TDO expressing), 200 uM tryptophan, 24 hours; Table 3; read-out: TDO2 Cell Fluor EC50.
Take `Cc1ccc2c(c1)-c1cncn1C2C1COCC1O` (single isomer, unassigned) [Example 171c]: the EC50 came out at 5.8 µM. On to `OC1c2cc(CF)nn2CCC1C1c2ccccc2-c2cncn21` (single isomer, unassigned) [Example 95a], for which the EC50 is > 25 µM.

Consider `O[C@H]1c2cnccc2CC[C@@H]1[C@@H]1c2ccccc2-c2cncn21` (single isomer, unassigned) [Example 04g], for which the EC50 is 19 µM. Next, `Nc1cc2n(n1)CC[C@@H]([C@H]1c3ccccc3-c3cncn31)[C@@H]2O` [Example 161b, (4S,5S)-2-amino-5-((S)-5H-imidazo[5,1-a]isoindol-5-yl)-4,5,6,7-tetrahydropyrazolo[1,5-a]pyridin-4-ol]: 0.7 µM. `NS(=O)(=O)c1ccc2c(c1)CCC(C1c3ccccc3-c3cncn31)C2O` (single isomer, unassigned) [Example 100c]: the EC50 was 7.4 µM. On to `NS(=O)(=O)N1CCC2(CCC(C3c4ccccc4-c4cncn43)C2O)CC1` (single isomer, unassigned) [Example 182b], for which the concentration for a half-maximal effect (EC50) came out at 0.54 µM. Regarding `Cc1ccc2c(c1)C(C1COCC1O)n1cncc1-2` (single isomer, unassigned) [Example 110d], the EC50 is > 25 µM. The same measure for `OC1CCOCC1C1c2cccc(F)c2-c2cncn21` (single isomer, unassigned) [Example 170a]: > 25 µM; for `OC1c2cnccc2CC1C1c2ccccc2-c2cncn21` (single isomer, unassigned) [Example 71c]: > 25 µM. Next, `OC1CC(CF)(CF)C1C1c2ccccc2-c2cncn21` (single isomer, unassigned) [Example 150f]: 11 µM; `OC1COCC1C1c2ccc(F)cc2-c2cncn21` (single isomer, unassigned) [Example 30c]: 2.1 µM; `CC(C)C(O)C1c2ccc(F)cc2-c2cncn21` (single isomer, unassigned) [Example 135c]: 3 µM. Next, `CS(=O)(=O)N1CCC2(CCC(C3c4ccccc4-c4cncn43)C2O)CC1` (single isomer, unassigned) [Example 180a]: 0.37 µM; `O[C@@H]1CN(CC(F)(F)F)CC[C@H]1[C@H]1c2ccccc2-c2cncn21` [Example 82b, (3S,4S)-4-((S)-5H-imidazo[5,1-a]isoindol-5-yl)-1-(2,2,2-trifluoroethyl)piperidin-3-ol]: 0.33 µM. In the case of `OC(c1ccncc1)C1c2ccccc2-c2cncn21` (single isomer, unassigned) [Example 152b], the EC50 is > 25 µM. Next, `Nc1ncc2c(n1)CCC(C1c3ccccc3-c3cncn31)C2O` (single isomer, unassigned) [Example 111d]: > 25 µM; `O[C@@H]1c2nncn2CC[C@H]1[C@H]1c2ccccc2-c2cncn21` (single isomer, unassigned) [Example 146-1c]: > 25 µM; `OC1c2nccn2CCC1C1c2ccccc2-c2cncn21` (single isomer, unassigned) [Example 88c]: > 25 µM. Next, `OC1COCCC1C1c2ccc(F)cc2-c2cncn21` (single isomer, unassigned) [Example 33d]: > 25 µM; `Cn1ncc2c1CCC(C1c3ccccc3-c3cncn31)C2O` (single isomer, unassigned) [Example 93d]: 1.4 µM. The same measure for `OC1c2cnnn2CCC1C1c2ccccc2-c2cncn21` (single isomer, unassigned) [Example 139a]: > 25 µM; for `Nc1cc2n(n1)CCC(C1c3ccccc3-c3cncn31)C2O` (single isomer, unassigned) [Example 161e]: > 25 µM. As to `CNS(=O)(=O)N1CC[C@H]([C@H]2c3ccccc3-c3cncn32)[C@@H](O)C1` [Example 74a, (3R,4R)-3-hydroxy-4-((S)-5H-imidazo[5,1-a]isoindol-5-yl)-N-methylpiperidine-1-sulfonamide], the EC50 was found to be 4 µM.

On to `NS(=O)(=O)N1CC(O)C(C2c3ccccc3-c3cncn32)C1` (single isomer, unassigned) [Example 28b], for which the EC50 came out at 4.4 µM. Next, `O[C@@H]1c2c(F)cnn2CC[C@@H]1[C@@H]1c2ccccc2-c2cncn21` (single isomer, unassigned) [Example 151b]: > 25 µM. Next, `OC1CCOCC1C1c2cccc(F)c2-c2cncn21` (single isomer, unassigned) [Example 170c]: > 25 µM. Turning to `CC1(C)CC(O)C1C1c2ccccc2-c2cncn21` (single isomer, unassigned) [Example 22d], the EC50 was 6.9 µM. Turning to `OC1(C2c3ccccc3-c3cncn32)CCOC1` (single isomer, unassigned) [Example 129d], the EC50 is 2.6 µM. In the case of `N#Cc1ccc2c(c1)C(O)C(C1c3ccccc3-c3cncn31)CC2` (single isomer, unassigned) [Example 113g], the EC50 was 3.3 µM. Take `CC1(O)CCC1C1c2ccccc2-c2cncn21` (single isomer, unassigned) [Example 35b]: the half-maximal effective concentration (EC50) was found to be 0.45 µM.

As to `CC(C)C(O)C1c2ccccc2-c2cncn21` (single isomer, unassigned) [Example 51d], the EC50 is 14 µM. For `OC1COCC1C1c2ccccc2-c2cncn21` (single isomer, unassigned) [Example 26b], the EC50 amounted to 0.23 µM. The same measure for `OC1CCOCC1C1c2cc(F)ccc2-c2cncn21` (single isomer, unassigned) [Example 75b]: 1.2 µM; for `O[C@H]1c2ccncc2CC[C@@H]1[C@H]1c2ccccc2-c2cncn21` (single isomer, unassigned) [Example 08e]: 0.23 µM. As for `O[C@@H](C1CCOCC1)[C@H]1c2ccccc2-c2cncn21` (single isomer, unassigned) [Example 138b], the EC50 is > 25 µM. Turning to `CC(C)(C)OC(=O)N1CC[C@H](O)[C@@H]([C@@H]2c3ccccc3-c3cncn32)C1` [Example 11b, (3R,4S)-tert-butyl 4-hydroxy-3-((R)-5H-imidazo[5,1-a]isoindol-5-yl)piperidine-1-carboxylate], the EC50 was > 25 µM.

For the compound `CC(=O)N1CCC(C2c3ccccc3-c3cncn32)C(O)C1` (single isomer, unassigned) [Example 09c, 1-(3-hydroxy-4-(5H-imidazo[5,1-a]isoindol-5-yl)piperidin-1-yl)ethan-1-one], the EC50 was > 25 µM. Turning to `Nc1ccc2c(n1)CCC(C1c3ccccc3-c3cncn31)C2O` (single isomer, unassigned) [Example 121f], the concentration for a half-maximal effect (EC50) was 24 µM. The same measure for `OC1CC2(CCC2)C1C1c2ccccc2-c2cncn21` (single isomer, unassigned) [Example 67b]: > 25 µM. Next, `OC1c2ccnn2CCCC1C1c2ccccc2-c2cncn21` (single isomer, unassigned) [Example 133d]: > 25 µM; `OC1c2cncn2CCC1C1c2ccccc2-c2cncn21` (single isomer, unassigned) [Example 07a]: 15 µM; `N#CCN1CCC(O)C(C2c3ccccc3-c3cncn32)C1` (single isomer, unassigned) [Example 58d]: > 25 µM. Take `OC1c2cnccc2CC1C1c2ccccc2-c2cncn21` (single isomer, unassigned) [Example 71d]: the EC50 came out at 1.6 µM. For the compound `OC1CCCOCC1C1c2ccccc2-c2cncn21` (single isomer, unassigned) [Example 86c], the half-maximal effective concentration (EC50) is > 25 µM. With `NS(=O)(=O)c1ccc2c(c1)CCC(C1c3ccccc3-c3cncn31)C2O` (single isomer, unassigned) [Example 100d], the EC50 is > 25 µM.

Regarding `CS(=O)(=O)c1ccc2c(c1)[C@@H](O)[C@H]([C@H]1c3ccccc3-c3cncn31)CC2` (single isomer, unassigned) [Example 142a], the EC50 is 0.037 µM.

Turning to `OC1CC(CF)(CF)C1C1c2ccccc2-c2cncn21` (single isomer, unassigned) [Example 150b], the half-maximal effective concentration (EC50) was 2.1 µM. With `Cn1cc2c(n1)CCC(C1c3ccccc3-c3cncn31)C2O` (single isomer, unassigned) [Example 130b], the EC50 turned out to be 0.65 µM.

For the compound `O[C@H]1c2ccncc2CC[C@H]1[C@H]1c2ccccc2-c2cncn21` (single isomer, unassigned) [Example 08h], the EC50 turned out to be 0.1 µM.

As to `CCS(=O)(=O)N1CC[C@H]([C@H]2c3ccccc3-c3cncn32)[C@@H](O)C1` [Example 16c, (3R,4R)-1-(ethylsulfonyl)-4-((S)-5H-imidazo[5,1-a]isoindol-5-yl)piperidin-3-ol], the EC50 worked out at 5.7 µM. The same measure for `OC1(C2c3ccccc3-c3cncn32)CCC1` (single isomer, unassigned) [Example 47a]: 0.35 µM.

Take `CC(C)(C(N)=O)C(O)C1c2ccccc2-c2cncn21` (single isomer, unassigned) [Example 155b]: the EC50 is > 25 µM. Next, `OC1CC2(COC2)C1C1c2ccccc2-c2cncn21` (single isomer, unassigned) [Example 87d]: > 25 µM. Regarding `O[C@@H]1c2ccncc2CC[C@@H]1[C@H]1c2ccccc2-c2cncn21` (single isomer, unassigned) [Example 08d], the EC50 was found to be 0.51 µM.

In the case of `Cc1ccc2c(c1)-c1cncn1C2C1COCC1O` (single isomer, unassigned) [Example 171b], the EC50 was > 25 µM. Next, `O=S(=O)(C1CC1)N1CC[C@@H](O)[C@H]([C@@H]2c3ccccc3-c3cncn32)C1` (single isomer, unassigned) [Example 70d]: > 25 µM. The same measure for `OC1C(C2c3ccc(F)cc3-c3cncn32)CC12CCOCC2` (single isomer, unassigned) [Example 109g]: 0.15 µM. The same measure for `NC(=O)c1ccc2c(n1)CCC(C1c3ccccc3-c3cncn31)C2O` (single isomer, unassigned) [Example 104a]: 2.2 µM.
